One series relates to sea lice. As to the kind of experiment: Injection of hexaflumuron in furunculosis vaccine formulations, sea lice counts after sea water transfer (Example 7). The format is in vivo, salmon (Salmo salar). The note with it: for average number of lice: control group 19.2. How it is done:
The treatment dosage was 9 mg hexaflumuron per kg fish per day for 10 days. This is indicated by "Groups/Timepoints" in the figure; • Figure 2 relates to the trial in Example 2 that was carried out on Atlantic salmon (Salmo salar). […] The treatment dosage varied between 3 - 9 mg hexaflumuron and 9- 12 mg fluazuron per kg fish per day for 7 days. This is indicated by "Groups/Timepoints" in the diagram. […] The treated groups are compared to an untreated control group. The treatment dosage was 4 mg hexaflumuron per kg fish per day for 5 days. This is indicated by "Groups/Timepoints" in the figure. Cage 2 = controls, Cage 4-6 = treated groups, 16.6.97 = time point for sea transfer and 5.8.97= controls treated by bathing with deltamethrin; • Figure 4 relates to the trial described in Example 5, which was carried out on sea trout (Salmo trutta). […] The treated groups are compared with an untreated control group. The dosage for oral treatment was 4 mg hexaflumuron per kilo fish per day for 5 days, and 5 ppm hexaflumuron as a 30 minute bath treatment. This is indicated by "Groups/Timepoints" in the figure. Cage 1.4 = Controls, cage 1.3 = Oral treatment, cage 1.2 = Bath treatment. […] The treated groups are compared with an untreated control group, and one group that has been treated orally with teflubenzuron (10 mg/kg of teflubenzuron per kg fish per day for 7 days). The dosage for oral treatment was 5.6 mg hexaflumuron per kg fish per day for 7 days, and 5 ppm hexaflumuron as a 30 minute bath treatment. […] End of treatment: 22.10.97, Sea transfer: 23.10.97. T1 = 3 weeks post end of treatment, T2 = 5 weeks post end of treatment, T3 = 9 weeks post end of treatment, T4 = 12 weeks post end of treatment; • Figure 6 relates to the trial in Example 6 at time points 4-6, with the same trial parameters as for Figure 5. T5 = 15 weeks post end of treatment, T6 = 17 weeks post end of treatment. Cage 3 and 4 were treated by bath with deltamethrin after sea lice counting at T4 (12.01.98); • Figure 7 relates to the trial described in Example 7 where salmon were injected on 17.12.97 with two formulations (groups L and R, respectively) of hexaflumuron and a vaccine formulation without hexaflumuron (control). […] The vaccinated fish was transferred to sea water on 09.01.98; • Figure 8 summarises the trial of Example 8 where salmon smolts were injected with 9 different active substances on 08.07.98. Only results for Moxidectin (Mox.), Lufenuron (Luf.) and hexaflumuron in Apoject 1-Fural (Hex.Apo) and in animal oil (Hex.oil) are shown, and • Figure 9 summarises the trial described in Example 10 where salmon were injected on 03.12.97 with 3 different formulations of hexaflumuron (Hexa 1, Hexa 2 and Hexa 3). The fish were transferred to sea water at T0.
About 80 salmon (Salmo salar) at an average weight of about 80 grams were divided into two groups and injected with two different formulations of hexaflumuron at a dosage of about 50 mg/kg. Both formulations were prepared based upon a vaccine against furunculosis containing inactivated cells of Aeromonas salmonicida subsp. salmonicida. Hexaflumuron was mixed/formulated into the vaccine in two different manners to study the effect of the formulation on the depot effect in the fish and on the stability characteristics of the vaccine emulsions.
The fish were dosed (injected) while they were in freshwater and 23 days after the administration they were transferred to sea water (mini-cages). In parallel with the two groups, a third group comprising 40 fish of the same origin and size was vaccinated with a conventional vaccine without hexaflumuron. This group was kept in the same tank (freshwater) and cage (sea water) as the "hexaflumuron injected" groups and served as negative control/reference group in respect of sea lice infestations. Prior to the start of the trial, the groups were marked by fin cutting. The water temperature varied between 3.8 and 16.0°C throughout the trial. […]

The nature of series [1]: Chemical analysis of muscle with skin after injection (Example 7). The format is in vivo, salmon (Salmo salar). The note with it: fish, 50 mg/kg; for concentration at 8280 h: T11, 345 days after injection, read-out: muscle/skin concentration of hexaflumuron. How it is done: Tissue samples (muscle with skin) for chemical analysis were collected from three fish at each sample point in time throughout the entire trial period in order to monitor the concentrations of hexaflumuron. At sea water transfer, the muscle/skin concentrations were between 2 and 3 µg hexaflumuron per g of tissue. […] At T8, i.e. 238 days after vaccination, the concentration of hexaflumuron varied between 0.49 and 0.53 µg per g of tissue. At T11, i.e. 345 days after injection (322 days after sea water transfer) the muscle/skin concentration of hexaflumuron in the two groups was 0.13 and 0.11 µg/g tissue, respectively. At the same point in time, different stages of sea lice had become established on these fish.

Series [2] can be described thus: Chemical analysis of muscle/skin after injection of hexaflumuron formulations (Example 8). The format is in vivo, salmon smolt. Particulars: 50 mg/kg; for concentration at 5232 h: fish, muscle/skin, T8 (218 days after injection). The procedure:
Tissue samples (muscle/skin) for chemical analysis were collected from five fish injected with the various hexaflumuron formulations at each sample point in time throughout the trial. […] At sea water transfer, the muscle/skin concentrations in the two other hexaflumuron groups (Apoject 1-Fural, animal oil) varied between 1 and 2.5 µg hexaflumuron/g tissue.

The record followed here is EP1306084A1, “Compositions for the control of parasitic infestations in fish” (Alpharma AS, priority 1998, dated 1999).

Like-named read-outs stand apart in the source and are kept apart here. Where only a bound is given, the exact number is not on record here.

In the case of `O=C(NC(=O)c1c(F)cccc1F)Nc1cc(Cl)c(OC(F)(F)C(F)F)c(Cl)c1` [hexaflumuron], the “average number of lice” value is 4.8 with sea lice (T8, first-named treated group (formulation)) and 1.8 with sea lice (T8, second-named treated group (formulation)). For the same compound, in the series on sea lice (T9 and T10, treated groups), the “number of sea lice versus control group” value is “significant differences”. In addition, the “number of lice versus control group” value in the series with sea lice (T11, after ALPHA MAX bath of all groups) is “significantly less lice”. Also, the “excellent protection against sea lice infestation after sea water transfer” value in the series with sea lice (injection about 50 mg/kg) was determined as 7 months. Further, the “partially protective effect after sea water transfer” value in the series on sea lice (injection about 50 mg/kg) is given as at most 10.5 months. In addition, the “time after sea water transfer until sea lice were first recorded (T8)” value with sea lice (injection about 50 mg/kg, two treated groups, control had lice from T5 (126 days)) is 215 days. The concentration at 5712 h in series [1] (T8, 238 days after vaccination, read-out: concentration of hexaflumuron in muscle/skin) lay in the range of 490 to 530 ng/g. The values for the concentration at 8280 h in series [1] (first-named group) and in series [1] (second-named group) were 130 ng/g and 110 ng/g, respectively. In addition, the concentration at 552 h in series [1] (at sea water transfer (23 days after injection of about 50 mg/kg), read-out: muscle/skin concentrations) was in the range of 2000 to 3000 ng/g. In series [2] (T3, injected in an aqueous suspension (PBS)), the “hexaflumuron concentrations in muscle/skin” value was “below 0.02 µg per g”. The concentration at 5232 h was 260 ng/g in series [2] (Apoject 1-Fural group) and 270 ng/g in series [2] (animal oil group).
